PubChem BioAssay AID2060340 (Molecular Pharmacology Branch, DTP, NCI, 2025)

Test system: 349418-098-R-PDC spheroids, viability, % test/control
Assay: Anticancer human tumor 349418-098-R-PDC patient-derived lung adenocarcinoma cell line growth inhibition [IpAb]
Details: spheroids with HUVEC and MSC; for IC50: curve of first compound; for viability, T/C: stronger effect = lower value
In short: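 Spheroids of 60% malignant cells, 25% HUVEC and 15% MSC were exposed to targeted agents combined with ipatasertib or abemaciclib. Doses started at or near clinical Cmax (10 microM when unknown) and fell in half-log steps.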

[1] = second compound 0.01 µM, first compound 0.00949 µM
[2] = second compound 0.01 µM, first compound 0.03 µM
[3] = second compound 0.01 µM, first compound 0.0949 µM
[4] = second compound 0.01 µM, first compound 0.3 µM
[5] = second compound 0.0316 µM, first compound 0.00949 µM
[6] = second compound 0.0316 µM, first compound 0.03 µM
[7] = second compound 0.0316 µM, first compound 0.0949 µM
[8] = second compound 0.0316 µM, first compound 0.3 µM
[9] = second compound 0.1 µM, first compound 0.00949 µM
[10] = second compound 0.1 µM, first compound 0.03 µM
[11] = second compound 0.1 µM, first compound 0.0949 µM
[12] = second compound 0.1 µM, first compound 0.3 µM
[13] = second compound 0.316 µM, first compound 0.00949 µM
[14] = second compound 0.316 µM, first compound 0.03 µM
[15] = second compound 0.316 µM, first compound 0.0949 µM
[16] = second compound 0.316 µM, first compound 0.3 µM
[17] = second compound 1 µM, first compound 0.00949 µM
[18] = second compound 1 µM, first compound 0.03 µM
[19] = second compound 1 µM, first compound 0.0949 µM
[20] = second compound 1 µM, first compound 0.3 µM

Work on `CC(=O)c1c(C)c2cnc(Nc3ccc(N4CCNCC4)cn3)nc2n(C2CCCC2)c1=O` + CCN1CCN(Cc2ccc(Nc3ncc(F)c(-c4cc(F)c5nc(C)n(C(C)C)c5c4)n3)nc2)CC1 yielded an IC50 (second compound 0.01 µM) of 6.56 nM, an IC50 (second compound 0.0316 µM) of less than 0.949 nM and an IC50 (second compound 0.1 µM) of less than 0.949 nM. It also gave an IC50 (second compound 0.316 µM) of less than 0.949 nM, an IC50 (second compound 1 µM) of less than 0.949 nM and a viability, T/C (second compound 0.01 µM, first compound 0.000949 µM) of 58.4%. For the same molecule, the viability, T/C (second compound 0.01 µM, first compound 0.003 µM) was 64.5%, the viability, T/C [1] was 40.4% and the viability, T/C [2] was 35.1%. For the same molecule, the viability, T/C [3] was 19.1%, the viability, T/C [4] was 15.8% and the viability, T/C (second compound 0.0316 µM, first compound 0.000949 µM) was 40.7%. It also gave a viability, T/C (second compound 0.0316 µM, first compound 0.003 µM) of 38.7%, a viability, T/C [5] of 28.5% and a viability, T/C [6] of 23.6%. For the same molecule, the viability, T/C [7] was 15.1%, the viability, T/C [8] was 15.6% and the viability, T/C (second compound 0.1 µM, first compound 0.000949 µM) was 24.8%. For the same molecule, the viability, T/C (second compound 0.1 µM, first compound 0.003 µM) was 24.8%, the viability, T/C [9] was 20.7% and the viability, T/C [10] was 19.5%. It also gave a viability, T/C [11] of 16.1%, a viability, T/C [12] of 14.6% and a viability, T/C (second compound 0.316 µM, first compound 0.000949 µM) of 16.8%. The viability, T/C (second compound 0.316 µM, first compound 0.003 µM) was 19.6%, the viability, T/C [13] was 19% and the viability, T/C [14] was 16%. The viability, T/C [15] was 13.8%, the viability, T/C [16] was 14.4% and the viability, T/C (second compound 1 µM, first compound 0.000949 µM) was 13.4%. The viability, T/C (second compound 1 µM, first compound 0.003 µM) was 17.6%, the viability, T/C [17] was 15.1% and the viability, T/C [18] was 15%. The viability, T/C [19] was 14.9% and the viability, T/C [20] was 13.9%.

`CC(C)(C)c1cnc(CSc2cnc(NC(=O)C3CCNCC3)s2)o1` + CCN1CCN(Cc2ccc(Nc3ncc(F)c(-c4cc(F)c5nc(C)n(C(C)C)c5c4)n3)nc2)CC1 showed an IC50 (second compound 0.01 µM) of 24.1 nM, an IC50 (second compound 0.0316 µM) of less than 9.49 nM and an IC50 (second compound 0.1 µM) of less than 9.49 nM. The IC50 (second compound 0.316 µM) was less than 9.49 nM, the IC50 (second compound 1 µM) was less than 9.49 nM and the viability, T/C [1] was 69.8%. It also gave a viability, T/C [2] of 45.4%, a viability, T/C [3] of 8.31% and a viability, T/C [4] of 2.5%. The viability, T/C (second compound 0.01 µM, first compound 0.949 µM) was 2.72%, the viability, T/C (second compound 0.01 µM, first compound 3 µM) was 2.34% and the viability, T/C [5] was 47.7%. It also gave a viability, T/C [6] of 36.2%, a viability, T/C [7] of 6.02% and a viability, T/C [8] of 2.71%. It also gave a viability, T/C (second compound 0.0316 µM, first compound 0.949 µM) of 2.93%, a viability, T/C (second compound 0.0316 µM, first compound 3 µM) of 2.49% and a viability, T/C [9] of 24.8%. For the same molecule, the viability, T/C [10] was 17.7%, the viability, T/C [11] was 4.01% and the viability, T/C [12] was 2.44%. For the same molecule, the viability, T/C (second compound 0.1 µM, first compound 0.949 µM) was 3%, the viability, T/C (second compound 0.1 µM, first compound 3 µM) was 2.01% and the viability, T/C [13] was 14.4%. It also gave a viability, T/C [14] of 13.7%, a viability, T/C [15] of 1.91% and a viability, T/C [16] of 2.83%. For the same molecule, the viability, T/C (second compound 0.316 µM, first compound 0.949 µM) was 3.36%, the viability, T/C (second compound 0.316 µM, first compound 3 µM) was 2.48% and the viability, T/C [17] was 13.9%. It also gave a viability, T/C [18] of 9.5%, a viability, T/C [19] of 2.29% and a viability, T/C [20] of 4.08%. For the same molecule, the viability, T/C (second compound 1 µM, first compound 0.949 µM) was 4.05% and the viability, T/C (second compound 1 µM, first compound 3 µM) was 3.25%.

With `Cn1nccc1Nc1nccc(-c2ccn(C(CO)c3ccc(Cl)c(F)c3)c(=O)c2)n1` (stereo not given) + CCN1CCN(Cc2ccc(Nc3ncc(F)c(-c4cc(F)c5nc(C)n(C(C)C)c5c4)n3)nc2)CC1 the IC50 (second compound 0.01 µM) was less than 31.6 nM, the IC50 (second compound 0.0316 µM) was less than 31.6 nM and the IC50 (second compound 0.1 µM) was less than 31.6 nM. The IC50 (second compound 0.316 µM) was less than 31.6 nM, the IC50 (second compound 1 µM) was less than 31.6 nM and the viability, T/C (second compound 0.01 µM, first compound 0.0316 µM) was 34.3%. For the same molecule, the viability, T/C (second compound 0.01 µM, first compound 0.1 µM) was 31.1%, the viability, T/C (second compound 0.01 µM, first compound 0.316 µM) was 28.1% and the viability, T/C (second compound 0.01 µM, first compound 1 µM) was 27.3%. The viability, T/C (second compound 0.01 µM, first compound 3.16 µM) was 23.5%, the viability, T/C (second compound 0.01 µM, first compound 10 µM) was 19.9% and the viability, T/C (second compound 0.0316 µM, first compound 0.0316 µM) was 21.5%. It also gave a viability, T/C (second compound 0.0316 µM, first compound 0.1 µM) of 23%, a viability, T/C (second compound 0.0316 µM, first compound 0.316 µM) of 18.6% and a viability, T/C (second compound 0.0316 µM, first compound 1 µM) of 18%. The viability, T/C (second compound 0.0316 µM, first compound 3.16 µM) was 17.1%, the viability, T/C (second compound 0.0316 µM, first compound 10 µM) was 16.3% and the viability, T/C (second compound 0.1 µM, first compound 0.0316 µM) was 13.1%. For the same molecule, the viability, T/C (second compound 0.1 µM, first compound 0.1 µM) was 13.4%, the viability, T/C (second compound 0.1 µM, first compound 0.316 µM) was 13.2% and the viability, T/C (second compound 0.1 µM, first compound 1 µM) was 12.7%. The viability, T/C (second compound 0.1 µM, first compound 3.16 µM) was 13.3%, the viability, T/C (second compound 0.1 µM, first compound 10 µM) was 13.5% and the viability, T/C (second compound 0.316 µM, first compound 0.0316 µM) was 11.6%. It also gave a viability, T/C (second compound 0.316 µM, first compound 0.1 µM) of 11.1%, a viability, T/C (second compound 0.316 µM, first compound 0.316 µM) of 11.2% and a viability, T/C (second compound 0.316 µM, first compound 1 µM) of 10.8%. For the same molecule, the viability, T/C (second compound 0.316 µM, first compound 3.16 µM) was 13%, the viability, T/C (second compound 0.316 µM, first compound 10 µM) was 13.2% and the viability, T/C (second compound 1 µM, first compound 0.0316 µM) was 12.7%. It also gave a viability, T/C (second compound 1 µM, first compound 0.1 µM) of 10.4%, a viability, T/C (second compound 1 µM, first compound 0.316 µM) of 11.1% and a viability, T/C (second compound 1 µM, first compound 1 µM) of 11.7%. For the same molecule, the viability, T/C (second compound 1 µM, first compound 3.16 µM) was 12.5% and the viability, T/C (second compound 1 µM, first compound 10 µM) was 12.2%.
